Among the data in PubChem BioAssay (NCI) are GI50 and TGI values, retold here.

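Where inhibition never reached the appropriate level, the endpoint shown equals the highest concentration tested. Otherwise, values were interpolated linearly from a five-concentration, 48-hour dose response in 96-well plates. GI50 is the concentration that inhibits growth by half. TGI: total growth inhibition.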

Among the test systems are EKVX NSCLC; SK-MEL-5 melanoma; NCI-H460 lung; NCI/ADR-RES ovarian; LOX IMVI melanoma; SK-OV-3 ovarian; T-47D breast; NCI-H226 lung; SR leukemia; HCT-116 colon.
Holding throughout (experiment): growth of human tumour cells (NCI), 48 h

On to `Cc1c(C)c2c(c(C)c1NC(=O)/C=C\C(=O)O)CCC(C)(CCCC(C)CCCC(C)CCCC(C)C)O2` (stereo not given), for which the GI50 is 1.57 µM with EKVX NSCLC; 1.73 µM in the assay on SK-MEL-5 melanoma; 1.45 µM in the assay on NCI-H460 lung; 2.54 µM with NCI/ADR-RES ovarian; 1.87 µM in the assay with LOX IMVI melanoma; 1.73 µM in the assay on SK-OV-3 ovarian. Further, the GI50 with T-47D breast is 2.02 µM; with NCI-H226 lung, 1.96 µM; in the assay with SR leukemia it was 1.61 µM; in the assay on HCT-116 colon, 1.28 µM. In addition, the TGI in the assay on EKVX NSCLC is 3.37 µM; in the assay with SK-MEL-5 melanoma, 3.15 µM; in the assay with NCI-H460 lung, 2.96 µM; in the assay on NCI/ADR-RES ovarian, 7.46 µM; in the assay on LOX IMVI melanoma it was 3.69 µM; in the assay on SK-OV-3 ovarian, 3.25 µM. The TGI in the assay with T-47D breast was 4.78 µM; with NCI-H226 lung it was 4.38 µM; with SR leukemia it was 4.63 µM; in the assay on HCT-116 colon it was 2.54 µM.
For the molecule `O=C(COc1ccc(/C=C2\Oc3ccccc3C2=O)cc1)Nc1nccs1`, the GI50 in the assay with EKVX NSCLC is 51.5 µM; with SK-MEL-5 melanoma, 64.4 µM; in the assay with NCI-H460 lung, 88 µM; in the assay on NCI/ADR-RES ovarian, 64.9 µM; in the assay with LOX IMVI melanoma, 0.371 µM; in the assay with SK-OV-3 ovarian it was over 100 µM. For the same molecule, the GI50 in the assay with T-47D breast is 75.4 µM; in the assay with NCI-H226 lung it was 60.3 µM; with SR leukemia, 20.8 µM; in the assay on HCT-116 colon it was 39.1 µM. Also, the TGI with EKVX NSCLC, with SK-MEL-5 melanoma, in the assay with NCI-H460 lung, in the assay with NCI/ADR-RES ovarian, in the assay on LOX IMVI melanoma and in the assay with SK-OV-3 ovarian was over 100 µM in each case. Further, the TGI in the assay with T-47D breast was over 100 µM; with NCI-H226 lung, over 100 µM; in the assay with SR leukemia it was 61 µM; in the assay with HCT-116 colon it was over 100 µM.
Regarding `N=Nc1c(OC(=O)Nc2ccccc2)[nH]c2ccccc12`, the TGI with EKVX NSCLC is over 100 µM; in the assay with SK-MEL-5 melanoma, 51.9 µM; with NCI-H460 lung, 25.7 µM; in the assay with NCI/ADR-RES ovarian, over 100 µM; in the assay with LOX IMVI melanoma, 33.7 µM; in the assay on SK-OV-3 ovarian it was 36.8 µM. Also, the TGI is 37.7 µM in the assay on T-47D breast, 37.9 µM in the assay with NCI-H226 lung, over 100 µM in the assay on SR leukemia and 31.6 µM in the assay with HCT-116 colon.
For `N#CC(C#N)=Cc1c(-c2ccccc2)[nH]c2ccccc12`, the GI50 was 5.81 µM in the assay on EKVX NSCLC; 1.08 µM in the assay with SK-MEL-5 melanoma; 2.02 µM in the assay on NCI-H460 lung; 0.82 µM in the assay with NCI/ADR-RES ovarian; 3.27 µM in the assay on LOX IMVI melanoma; 5.57 µM in the assay on SK-OV-3 ovarian. In addition, the GI50 in the assay on T-47D breast was 4.23 µM; with NCI-H226 lung it was 3.84 µM; with SR leukemia, over 100 µM; in the assay with HCT-116 colon, 2.21 µM. Further, the TGI was over 86.4 µM in the assay on EKVX NSCLC; 12.8 µM in the assay on SK-MEL-5 melanoma; over 39.8 µM in the assay on NCI-H460 lung; over 45.2 µM in the assay on NCI/ADR-RES ovarian; over 47.3 µM in the assay on LOX IMVI melanoma; over 80.7 µM in the assay with SK-OV-3 ovarian. The TGI was over 95.1 µM in the assay on T-47D breast, over 41.4 µM with NCI-H226 lung, over 100 µM in the assay on SR leukemia and over 100 µM with HCT-116 colon.
Consider `Oc1c(C(Nc2cccc3ccccc23)c2ccccc2)ccc2cccnc12` (stereo not given), for which the GI50 was 2.93 µM in the assay with EKVX NSCLC; 2.1 µM with SK-MEL-5 melanoma; 2.07 µM in the assay with NCI-H460 lung; 2.17 µM in the assay on NCI/ADR-RES ovarian; 1.92 µM in the assay with LOX IMVI melanoma; 5.9 µM in the assay on SK-OV-3 ovarian. For the same molecule, the GI50 in the assay on T-47D breast was 4.75 µM; with NCI-H226 lung it was 2.17 µM; with SR leukemia, 2.76 µM; in the assay on HCT-116 colon, 2.86 µM. The TGI in the assay on EKVX NSCLC is 41.1 µM; in the assay with SK-MEL-5 melanoma, 5.99 µM; with NCI-H460 lung it was 18.5 µM; in the assay with NCI/ADR-RES ovarian it was 8.29 µM; in the assay on LOX IMVI melanoma, 13.7 µM; in the assay on SK-OV-3 ovarian it was over 100 µM. The TGI in the assay with T-47D breast was 58.3 µM; with NCI-H226 lung it was 8.06 µM; with SR leukemia, 22.5 µM; in the assay with HCT-116 colon, 17.9 µM.
As to `COc1cc(N2CCN(C(C)C)CC2)ccc1Nc1nc(Nc2cccc3ncccc23)c2cc[nH]c2n1`, the GI50 was 8.83 µM with EKVX NSCLC; 3.41 µM in the assay on SK-MEL-5 melanoma; 6.16 µM in the assay on NCI-H460 lung; 8.45 µM in the assay on NCI/ADR-RES ovarian; 3.3 µM in the assay on LOX IMVI melanoma; 5.58 µM in the assay on SK-OV-3 ovarian. Further, the GI50 was 3.8 µM in the assay with T-47D breast, 4.82 µM in the assay on NCI-H226 lung, 1.14 µM in the assay on SR leukemia and 3.04 µM in the assay on HCT-116 colon. For the same molecule, the TGI was over 25 µM in the assay with EKVX NSCLC; 6.66 µM in the assay with SK-MEL-5 melanoma; over 23.5 µM with NCI-H460 lung; over 25 µM in the assay with NCI/ADR-RES ovarian; 6.95 µM in the assay with LOX IMVI melanoma; 19.1 µM with SK-OV-3 ovarian. The TGI is 13.6 µM in the assay on T-47D breast, over 25 µM in the assay with NCI-H226 lung, over 11.1 µM in the assay with SR leukemia and 7.11 µM in the assay on HCT-116 colon.
For `C=CCn1c(=O)c2cnc(Nc3ccc(N4CCN(C)CC4)cc3)nc2n1-c1ccc2c(n1)[C@@](O)(CC)CC2`, the GI50 with EKVX NSCLC is 1.12 µM; in the assay on SK-MEL-5 melanoma it was 0.3 µM; with NCI-H460 lung, 1.94 µM; in the assay on NCI/ADR-RES ovarian, 5.69 µM; in the assay on LOX IMVI melanoma it was 1.02 µM; with SK-OV-3 ovarian, 0.284 µM. The GI50 in the assay with T-47D breast was 2.17 µM; with NCI-H226 lung it was 1.94 µM; in the assay on SR leukemia it was 0.193 µM; in the assay on HCT-116 colon it was 0.415 µM. The TGI in the assay on EKVX NSCLC amounted to 22.5 µM; with SK-MEL-5 melanoma it was 1.27 µM; in the assay on NCI-H460 lung, 16.7 µM; in the assay on NCI/ADR-RES ovarian, 33.5 µM; in the assay on LOX IMVI melanoma it was 9.89 µM; with SK-OV-3 ovarian, 4.48 µM. Further, the TGI in the assay on T-47D breast is over 80.7 µM; in the assay on NCI-H226 lung, 15.2 µM; in the assay on SR leukemia, 1.38 µM; in the assay on HCT-116 colon, 16 µM.
As for `O=C(Cn1c(=O)c(-c2ccccc2)nc2ccccc21)c1ccc(Cl)cc1`, the GI50 in the assay on EKVX NSCLC was 94.2 µM; in the assay on SK-MEL-5 melanoma, over 100 µM; in the assay on NCI-H460 lung, 75.6 µM; with NCI/ADR-RES ovarian it was 48 µM; with LOX IMVI melanoma it was 55 µM; in the assay on SK-OV-3 ovarian, 46.4 µM. The GI50 is over 100 µM in the assay with T-47D breast, 53.5 µM in the assay on NCI-H226 lung, 37.1 µM in the assay with SR leukemia and over 100 µM in the assay with HCT-116 colon. Also, the TGI in the assay on EKVX NSCLC, with SK-MEL-5 melanoma, in the assay with NCI-H460 lung, in the assay on NCI/ADR-RES ovarian, in the assay with LOX IMVI melanoma and in the assay with SK-OV-3 ovarian was over 100 µM each time. For the same molecule, the TGI with T-47D breast, with NCI-H226 lung, in the assay on SR leukemia and in the assay on HCT-116 colon was over 100 µM throughout.
